{"source": "BindingDB's records for doi:10.7270/Q2MP51PC", "about": "(Pcmd, 2008)"}
{"molecular_target": "T1, Complement C1s subcomponent (Homo sapiens, UniProt P09871)", "T1 sequence (P09871 whole entry)": "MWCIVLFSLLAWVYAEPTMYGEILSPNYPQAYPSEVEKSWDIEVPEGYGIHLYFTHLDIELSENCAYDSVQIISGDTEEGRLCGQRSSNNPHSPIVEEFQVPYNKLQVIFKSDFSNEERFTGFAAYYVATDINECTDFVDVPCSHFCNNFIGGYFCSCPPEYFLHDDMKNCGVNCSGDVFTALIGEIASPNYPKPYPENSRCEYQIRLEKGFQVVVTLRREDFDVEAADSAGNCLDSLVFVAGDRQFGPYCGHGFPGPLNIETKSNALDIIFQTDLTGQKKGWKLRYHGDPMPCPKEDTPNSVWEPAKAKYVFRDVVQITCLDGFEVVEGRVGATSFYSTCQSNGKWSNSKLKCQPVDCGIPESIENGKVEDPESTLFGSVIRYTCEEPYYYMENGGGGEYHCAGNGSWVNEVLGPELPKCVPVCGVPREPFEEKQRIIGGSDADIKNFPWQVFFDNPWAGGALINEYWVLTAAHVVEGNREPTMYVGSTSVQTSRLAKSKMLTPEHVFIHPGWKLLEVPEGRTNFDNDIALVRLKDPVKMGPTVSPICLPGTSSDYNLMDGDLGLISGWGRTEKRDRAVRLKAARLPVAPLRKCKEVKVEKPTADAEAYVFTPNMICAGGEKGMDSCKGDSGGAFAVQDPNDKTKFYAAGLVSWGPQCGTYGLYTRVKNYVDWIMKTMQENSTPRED", "experiment": "C1s inhibitor IC50 values, dose response, biochemical (AID 787)", "units": {"IC50": "µM"}}
{"molecule": "COC(=O)c1ccccc1NC(=O)c1cc(-c2ccc(OC)c(OC)c2)on1", "note": "[2-[[5-(3,4-dimethoxyphenyl)isoxazole-3-carbonyl]amino]benzoic acid methyl ester]", "IC50": "> 50"}
{"molecule": "O=C(Oc1ccc(-n2cnnn2)cc1)c1ccco1", "note": "[2-furancarboxylic acid [4-(1-tetrazolyl)phenyl] ester]", "IC50": "> 50"}
{"molecule": "CSc1nc(-c2ccco2)nn1C(=O)c1ccco1", "note": "[2-furanyl-[3-(2-furanyl)-5-(methylthio)-1,2,4-triazol-1-yl]methanone]", "IC50": 4.88}
{"molecule": "Cc1nc2scc(-c3cccs3)c2c(=O)o1", "note": "[2-methyl-5-(2-thienyl)thieno[2,3-d][1,3]oxazin-4-one]", "IC50": "> 50"}
{"molecule": "Cc1nc2sc(C(c3cccs3)N3CCN(Cc4ccccc4)CC3)c(O)n2n1", "note": "(centres undefined) [2-methyl-5-[[4-(phenylmethyl)-1-piperazinyl]-thiophen-2-ylmethyl]-6-thiazolo[3,2-b][1,2,4]triazolol]", "IC50": "> 50"}
{"molecule": "O=C(COC(=O)c1cnccn1)c1ccc(OC(=O)c2ccccc2)cc1", "note": "[2-pyrazinecarboxylic acid [2-(4-benzoyloxyphenyl)-2-oxoethyl] ester]", "IC50": "> 50"}
{"molecule": "CC(C)(C)c1cc(C(=O)NCc2ccccc2)ccn1", "note": "[2-tert-butyl-N-(phenylmethyl)-4-pyridinecarboxamide]", "IC50": "> 50"}
{"molecule": "COc1ccc(C(=O)SC2=NCCS2)cc1OC", "note": "[3,4-dimethoxybenzenecarbothioic acid S-(4,5-dihydrothiazol-2-yl) ester]", "IC50": "> 50"}
{"molecule": "COc1cc(OC)cc(C(=O)Nc2ncc3c(n2)CC(C)CC3=O)c1", "note": "(centres undefined) [3,5-dimethoxy-N-(7-methyl-5-oxidanylidene-7,8-dihydro-6H-quinazolin-2-yl)benzamide]", "IC50": "> 50"}
{"molecule": "CCCc1nc2ccccc2c(=O)n1-c1c(C)n(C)n(-c2ccccc2)c1=O", "note": "[3-(1,5-dimethyl-3-oxo-2-phenyl-4-pyrazolyl)-2-propyl-4-quinazolinone]", "IC50": "> 50"}
{"molecule": "O=C(Nc1nc(-c2cccs2)cs1)c1cccc(S(=O)(=O)N2CCCCCC2)c1", "note": "[3-(1-azepanylsulfonyl)-N-(4-thiophen-2-yl-2-thiazolyl)benzamide]", "IC50": "> 50"}
{"molecule": "Cc1cc(NC(=O)c2cccc(S(=O)(=O)N3CCCCCC3)c2)n(-c2ccccn2)n1", "note": "[3-(1-azepanylsulfonyl)-N-[5-methyl-2-(2-pyridinyl)-3-pyrazolyl]benzamide]", "IC50": "> 50"}
{"molecule": "CC1(C)C(c2ccccc2)=NC(c2cccnc2)N1O", "note": "(centres undefined) [3-(1-hydroxy-5,5-dimethyl-4-phenyl-2H-imidazol-2-yl)pyridine]", "IC50": "> 50"}
{"molecule": "COc1ccccc1CN1CCCCC1c1cccnc1", "note": "(centres undefined) [3-(1-o-anisyl-2-piperidyl)pyridine]", "IC50": "> 50"}
{"molecule": "O=C(Nc1ccccn1)c1cccc(S(=O)(=O)N2CCCCC2)c1", "note": "[3-(1-piperidinylsulfonyl)-N-(2-pyridinyl)benzamide]", "IC50": "> 50"}
{"molecule": "O=C(Nc1nccs1)c1cccc(S(=O)(=O)N2CCCCC2)c1", "note": "[3-(1-piperidinylsulfonyl)-N-(2-thiazolyl)benzamide]", "IC50": "> 50"}
{"molecule": "O=C(Nc1nc(-c2cccs2)cs1)c1cccc(S(=O)(=O)N2CCCCC2)c1", "note": "[3-(1-piperidinylsulfonyl)-N-(4-thiophen-2-yl-2-thiazolyl)benzamide]", "IC50": "> 50"}
{"molecule": "O=C(NCc1cccs1)c1cccc(S(=O)(=O)N2CCCCC2)c1", "note": "[3-(1-piperidinylsulfonyl)-N-(thiophen-2-ylmethyl)benzamide]", "IC50": "> 50"}
{"molecule": "O=c1c(-c2ccco2)[n+]([O-])c2ccccc2n1OCc1ccccn1", "note": "[3-(2-furanyl)-4-oxido-1-(2-pyridinylmethoxy)-2-quinoxalin-4-iumone]", "IC50": 37.9}
{"molecule": "CCc1ccc(-c2cn(-c3nc(C)cc(C)n3)c(=N)o2)cc1", "note": "[3-(4,6-dimethyl-2-pyrimidinyl)-5-(4-ethylphenyl)-2-oxazolimine]", "IC50": "> 50"}
{"molecule": "CC1CCN(S(=O)(=O)c2cccc(C(=O)NCc3cccs3)c2)CC1", "note": "[3-(4-Methyl-piperidine-1-sulfonyl)-N-thiophen-2-ylmethyl-benzamide]", "IC50": "> 50"}
{"molecule": "CC(=O)N1CCN(C(=O)c2cccc(S(=O)(=O)Nc3ccc(C)cc3)c2)CC1", "note": "[3-(4-acetylpiperazine-1-carbonyl)-N-(4-methylphenyl)benzenesulfonamide]", "IC50": "> 50"}
{"molecule": "CC1CCN(S(=O)(=O)c2cccc(C(=O)Nc3nccs3)c2)CC1", "note": "[3-(4-methylpiperidin-1-yl)sulfonyl-N-(1,3-thiazol-2-yl)benzamide]", "IC50": "> 50"}
{"molecule": "O=C(Nc1nccs1)c1cccc(S(=O)(=O)N2CCOCC2)c1", "note": "[3-(4-morpholinylsulfonyl)-N-(2-thiazolyl)benzamide]", "IC50": "> 50"}
{"molecule": "Cc1csc(N(C(=O)c2cccc(S(=O)(=O)N(C)C)c2)c2ccccc2)n1", "note": "[3-(dimethylsulfamoyl)-N-(4-methyl-1,3-thiazol-2-yl)-N-phenyl-benzamide]", "IC50": "> 50"}
{"molecule": "c1ccc(Cc2nn3c(COc4ccccc4)nnc3s2)cc1", "note": "[3-(phenoxymethyl)-6-(phenylmethyl)-[1,2,4]triazolo[3,4-b][1,3,4]thiadiazole]", "IC50": "> 50"}
{"molecule": "CCn1c(=O)c(C(C)=O)nc2ccccc21", "note": "[3-acetyl-1-ethyl-2-quinoxalinone]", "IC50": "> 50"}
{"molecule": "O=C(NC1=NCCS1)c1cccc(S(=O)(=O)N2CCCCC2)c1", "note": "[3-piperidinosulfonyl-N-(2-thiazolin-2-yl)benzamide]", "IC50": "> 50"}
{"molecule": "c1cncc(-c2nnc3n2N=C(c2cccs2)CS3)c1", "note": "[3-pyridin-3-yl-6-thiophen-2-yl-7H-[1,2,4]triazolo[3,4-b][1,3,4]thiadiazine]", "IC50": "> 50"}
{"molecule": "CCC(C)N1CC23C=CC(O2)C(C(=O)OCc2ccccc2)C3C1=O", "note": "(centres undefined) [3-sec-Butyl-4-oxo-10-oxa-3-aza-tricyclo[5.2.1.0*1,5*]dec-8-ene-6-carboxylic acid benzyl ester]", "IC50": "> 50"}
{"molecule": "NC(=O)C1(N2CCCCC2)CCN(C(=O)Nc2ccccc2C(F)(F)F)CC1", "note": "[4-(1-piperidinyl)-N1-[2-(trifluoromethyl)phenyl]piperidine-1,4-dicarboxamide]", "IC50": "> 50"}
{"molecule": "COCCCNC(CC(=O)Nc1ccccc1C(=O)OC)C(=O)O", "note": "(centres undefined) [4-(2-carbomethoxyanilino)-4-keto-2-(3-methoxypropylamino)butyric acid]", "IC50": "> 50"}
{"molecule": "CCOC(=O)N1CCN(C(=O)CN(c2cccc(C)c2)S(=O)(=O)c2ccc(C)cc2)CC1", "note": "[4-[2-(3-methyl-N-(4-methylphenyl)sulfonylanilino)-1-oxoethyl]-1-piperazinecarboxylic acid ethyl ester]", "IC50": "> 50"}
{"molecule": "CCCCn1c(-c2cc(Cl)ccc2OC)n[nH]c1=S", "note": "[4-butyl-3-(5-chloro-2-methoxyphenyl)-1H-1,2,4-triazole-5-thione]", "IC50": "> 50"}
{"molecule": "CC(C)NS(=O)(=O)c1cc(C(=O)O)ccc1Cl", "note": "[4-chloranyl-3-(propan-2-ylsulfamoyl)benzoic acid]", "IC50": "> 50"}
{"molecule": "O=C(Nc1nccs1)c1ccc(Cl)c(S(=O)(=O)N2CCOCC2)c1", "note": "[4-chloranyl-3-morpholin-4-ylsulfonyl-N-(1,3-thiazol-2-yl)benzamide]", "IC50": "> 50"}
{"molecule": "O=C(Nc1nccs1)c1ccc(Cl)c(S(=O)(=O)N2CCCCC2)c1", "note": "[4-chloranyl-3-piperidin-1-ylsulfonyl-N-(1,3-thiazol-2-yl)benzamide]", "IC50": "> 50"}
{"molecule": "O=C(Oc1ccc(Cl)cc1-n1c(O)ccc1O)c1ccco1", "note": "[4-chloro-2-(2,5-dioxo-1-pyrrolidinyl)phenyl 2-furoate]", "IC50": "> 50"}
{"molecule": "CCn1c(CCn2ccnc2C)n[nH]c1=S", "note": "[4-ethyl-5-[2-(2-methyl-1H-imidazol-1-yl)ethyl]-2,4-dihydro-3H-1,2,4-triazole-3-thione]", "IC50": "> 50"}
{"molecule": "CCc1c(C(=O)NCc2cnn(C)c2)csc1C", "note": "[4-ethyl-5-methyl-N-[(1-methyl-1H-pyrazol-4-yl)methyl]-3-thiophenecarboxamide]", "IC50": "> 50"}
{"molecule": "CCOC(=O)c1sc(NC(=O)c2cc(S(=O)(=O)N3CCOCC3)ccc2C)nc1C", "note": "[4-methyl-2-[(2-methyl-5-morpholinosulfonyl-benzoyl)amino]thiazole-5-carboxylic acid ethyl ester]", "IC50": "> 50"}
{"molecule": "Cc1ccc(C(=O)Nc2nccs2)cc1S(=O)(=O)N1CCCCC1", "note": "[4-methyl-3-(1-piperidinylsulfonyl)-N-(2-thiazolyl)benzamide]", "IC50": "> 50"}
{"molecule": "Cc1csc(NC(=O)c2ccc(C)c(S(=O)(=O)N3CCCCC3)c2)n1", "note": "[4-methyl-N-(4-methyl-1,3-thiazol-2-yl)-3-piperidin-1-ylsulfonyl-benzamide]", "IC50": "> 50"}
{"molecule": "CC(=O)NC(=O)NC1CSCC1OC(C)=O", "note": "(centres undefined) [4-{[(acetylamino)carbonyl]amino}tetrahydro-3-thienyl acetate]", "IC50": "> 50"}
{"molecule": "CCc1ccc(C2CC(c3ccccc3Cl)Nc3nc(N)nn32)cc1", "note": "(centres undefined) [5-(2-chlorophenyl)-7-(4-ethylphenyl)-1,5,6,7-tetrahydro-[1,2,4]triazolo[1,5-a]pyrimidin-2-amine]", "IC50": "> 50"}
{"molecule": "COc1ccc(CNC(=O)c2cc(-c3ccc(OC)c(OC)c3)on2)cc1", "note": "[5-(3,4-dimethoxyphenyl)-N-(4-methoxybenzyl)isoxazole-3-carboxamide]", "IC50": "> 50"}
{"molecule": "CC(C)NC(=O)c1cc(-c2ccc(Br)cc2)on1", "note": "[5-(4-bromophenyl)-N-isopropyl-isoxazole-3-carboxamide]", "IC50": "> 50"}
{"molecule": "Cc1ccc(-c2cc(C(=O)NCc3ccccn3)no2)cc1", "note": "[5-(4-methylphenyl)-N-(2-pyridinylmethyl)-3-isoxazolecarboxamide]", "IC50": "> 50"}
{"molecule": "Cc1ccccc1S(=O)(=O)Cc1ccc(C(=O)NCc2cccnc2)o1", "note": "[5-(o-tolylsulfonylmethyl)-N-(3-pyridylmethyl)-2-furamide]", "IC50": "> 50"}
